In patent US10921324B2, “Compositions and methods related to the methylation of histone H1.0 protein” (Aelan Cell Technologies, Inc., priority 2016, dated 2021):
Ends that are not written are not given here.

What was measured:
G9A methyltransferase [1] = experiment: In vitro methylation of unmodified H1.0 peptide with G9A, products by LC-MS; format: biochemical
Description: In order to identify the precise sites of methylation by G9A and GLP methyltransferases on histone H1.0, in vitro methylation assays were performed and subsequently analyzed by Liquid Chromatography and High-resolution Mass Spectrometry (LC-MS) analysis. Methylation reactions were set up using either G9A methyltransferase (NEB, M0235S, Lot #0031201) or GLP methyltransferase (Cayman Chemical, 10755). The methyl donor in each reaction was unlabeled S-Adenosyl-L-Methionine (NEB, B9003S). The H1.0 substrate in each reaction was either unmodified H1.0 peptide labeled with biotin (ThermoFisher Scientific, Biotin-[…] (SEQ ID NO:69)), di-methylated H1.0 peptide (ThermoFisher Scientific, Biotin-[…]^(me2)PK (SEQ ID NO:70)), or full-length recombinant human H1.0 (NEB, M2501S). […]
For the Liquid Chromatography and High-resolution Mass Spectrometry (LC-MS) analysis, samples were prepared as described above and about 1 μg o the product was injected onto a Thermo Scientific Easy nLC system configured with a 10 cm×100 um trap column and a 25 cm×100 um ID resolving column. […] This ensured optimal full-scan data for quantification. […]
Protein identification was performed using Thermo Scientific Proteome Discoverer version 1.4 (including Sequest and Percolator algorithms) using RefSeqHuman sequence database. […] Protein quantification was performed using Pinpoint version 1.4 software. The Pinpoint quantification workflow included importing the Proteome Discoverer .msf files as spectral libraries. Identified peptides were subsequently quantified in MS .raw files using the Pinpoint peak finding, chromatographic alignment and area calculation algorithms.
In order to identify the precise locations of G9A methylation on unmodified H1.0 peptide ([…] (SEQ ID NO:36)), a methylation reaction was set up and the products identified by LC-MS. […] The methylation reaction was subsequently analyzed by LC-MS, and each spectral peak (corresponding to a peptide species in the final reaction) was identified and quantified using spectral counts. […]

G9A methyltransferase [2] = experiment: Radiolabel in vitro methylation assay of H1.0 peptide (autoradiography); format: biochemical; settings: 10U G9A, S-[Methyl-3H] SAM, 37° C. 1 hour
Description: In order to visualize methylation of H1.0 peptide by G9A methyltransferase in vitro, a methylation assay was performed incorporating a radiolabelled methyl donor, which allows for visualization of methylated peptide on a gel after autoradiography exposure. The following methylation reaction was set up in a 1.5 ml tube: 1×HMT reaction buffer (50 mM Tris-HCl, 5 mM MgCl2, 4 mM dithiothreitol, pH 9.0), 10U G9A Methyltransferase (NEB, M0235S, Lot #0031201), 3.2 mM Adenosyl-L-Methionine, S-[Methyl-3H] (Perkin Elmer, NET155H, Lot #1664720), 10 μg H1.0 peptide (ThermoFisher Scientific, Biotin-[…] (SEQ ID NO:69)), final volume 10 μl. A control reaction as above but without H1.0 peptide was also created. Reactions were incubated in a thermocycler at 37° C. for 1 hour. Reactions were stopped by incubating on ice for 5 minutes, and subsequently resolved on a 16.5% Tricine gel (BioRad, 4563063). Gels were soaked in 30% methanol, 5% glycerol for 30 minutes before vacuum drying at RT for 24 hours. Autoradiography analysis of dried gels with a phosphoimager (Molecular Dynamics) was then performed to assess effective methylation of H1.0 peptide with methyl-3H groups by the G9A methyltransferase. (Example 1, FIG. 8A)
The methylation reaction was subsequently resolved on a gel and visualized via autoradiography. […] A control reaction lacking H1.0 peptide yielded no tritium-labeled products.

Chain of G9A methyltransferase (Q9Z148 969-1263 limits assumed): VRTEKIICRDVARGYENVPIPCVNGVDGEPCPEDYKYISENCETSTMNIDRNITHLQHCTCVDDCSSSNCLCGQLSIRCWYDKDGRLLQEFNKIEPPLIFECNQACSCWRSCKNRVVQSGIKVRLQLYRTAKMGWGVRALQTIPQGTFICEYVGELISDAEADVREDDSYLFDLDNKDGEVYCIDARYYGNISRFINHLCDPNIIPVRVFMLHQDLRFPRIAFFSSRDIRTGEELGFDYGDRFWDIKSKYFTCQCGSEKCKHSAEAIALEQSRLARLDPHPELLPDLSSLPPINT

Sequence: AKPVKASKPKKAKPVKPK (not fully specified (N-terminus); listed as Homo sapiens) [unmethylated H1.0 peptide, unmodified H1.0 peptide substrate for in vitro methylation]
- sites of methylation by G9A on the peptide (G9A methyltransferase [1]; LC-MS): dimethylates lysine K180 but not other lysines (K166, K174, K175 or K177)
- H1.0K180 dimethylated, % of all peptides (G9A methyltransferase [1]; LC-MS spectral counts, 10U G9A, 3.2 mM S-Adenosyl-L-Methionine, 37° C. 1 hour): 99.9%
- estimated methylation efficiency (G9A methyltransferase [1]; dimethylation of K180 by G9A): about 99%
- methylation of H1.0 peptide by G9A (tritium-labeled methyl groups, band at 4 kDa) (G9A methyltransferase [2]): capable of methylating an H1.0 peptide
